Literature values as cited in patent US20040054006A1 (priority 1999, published 2004).

Columns and labels:
[1] = intravenous injection, up to 8 grams/day, patients with cardiac diseases
[2] = 1% dietary cyclocreatine
[3] = system: creatine kinase; conditions: forward reaction, both in vitro and in vivo
[4] = fed to mice, rats and chicks
[5] = newly hatched chicks, diet containing 1% cyclocreatine
[6] = mice, up to 1% of diet for 2 weeks or for over 4 weeks
[7] = feeding animals cyclocreatine, e.g. 1% dietary
[8] = rats, dietary 1% cyclocreatine

Compound	adverse side effects [1]	antiviral activity [2]	phosphorylation by creatine kinase [3]	tolerability [4]	growth versus control chicks [5]	mortality ([5]; in the presence of antibiotics)	gross adverse effects [6]	accumulation in different organs [7]	tissue uptake [8]
N-phosphoryl creatine [Creatine phosphate]	no adverse side effects								
NC1=NCCN1CC(=O)O [cyclocreatine, 1-carboxymethyl-2-iminoimidazolidine]		antiviral activity of cyclocreatine is observed	phosphorylated efficiently	well-tolerated	grew more slowly than control chicks	without significant mortality	without gross adverse effects	accumulation of cyclocreatine in different organs in mM concentrations	taken up by muscle, heart and brain
